The text below walks through data of patent US10479807B2, “Silylated pyrimidine prodrugs and methods of their use” (priority 2014, dated 2019).

pIC50: −log10 of the molar value. Like-named read-outs stand apart in the source and are kept apart here.

In one data set the test system is L1210. Kind of data set: In vitro cytotoxicity, leukemia. In kind it is cell-based. The settings on record: Mus musculus.
A further data set deals with mice. Kind of data set: Toxicity of formulated Compound XI in mice. In kind it is in vivo. As to conditions: nanoemulsion, intravenously on three consecutive days, doses up to 60 mg/kg, observed at the end of one week. The procedure:
Compound XI was successfully formulated in a nanoemulsion at a concentration of 3 mg/ml. The nanoemulsion has an oil phase consisting of an injectable oil and lecithin and an aqueous phase comprising a tonicity adjuster, a stabilizer and water. The emulsions are of oil-in-water type with the mean oil droplets less than 100 nm. Each vehicle is at neutral pH (5-7) and about isotonic. The toxicity of formulated Compound XI was tested in mice. Mice were injected intravenously on three consecutive days with Compound XI at doses of up to 60 mg/kg and observed at the end of one week.

The test system of the next data set is MDA-MB-231. Briefly: In vitro cytotoxicity, breast. The data set is classed as cell-based. The settings on record: Homo sapiens, MDA-MB-231, read-out: In vitro cytotoxicity IC50, Breast MDA-MB-231.
Another data set has as its system HCT-116. Kind of data set: In vitro cytotoxicity, colon. As to conditions: Homo sapiens, HCT-116, read-out: In vitro cytotoxicity IC50, Colon HCT-116. The data set is classed as cell-based.
The nature of data set [1]: Release of 5-azacytidine from prodrug by hydrolysis in PBS. In kind it is physicochemical. As to conditions: PBS at room temperature (20° C.).
For data set [2] the following is noted: trifluridine alone; cited from earlier work.

A word on the pIC50: it is the IC50 on a negative log10 scale, so that one unit is a factor of ten. Turning to `Nc1ncn([C@@H]2O[C@H](CO)[C@@H](O)[C@H]2O)c(=O)n1` [5-azacyctidine, 5-azacytidine, reference compound], the negative logarithm of the IC50 (pIC50) with L1210 (L1210 leukemia, read-out: In vitro cytotoxicity IC50, Leukemia L1210) was 5.62 to 5.77.

`C[Si](C)(C)OC[C@H]1O[C@@H](n2cnc(N)nc2=O)C(F)(F)C1O[Si](C)(C)C` (stereo partly shown) [Compound XI, 2′,2′-Difluoro-5-azadeoxycytidine-trimethylsilyl]: in the data set on mice, the “Toxicity as measured by weight loss” value was “No evidence of toxicity”.

Regarding `C[Si](C)(C)OC[C@H]1O[C@@H](n2cnc(N)nc2=O)[C@@H](O[Si](C)(C)C)C1O[Si](C)(C)C` (stereo partly shown) [NUC025, 2′,3′,5′-Tri(trimethylsilyl)-5-azacytidine], the negative logarithm of the IC50 (pIC50) in the data set with MDA-MB-231 is 5.48; with HCT-116, 5.97; with L1210 (L1210, read-out: In vitro cytotoxicity IC50, Leukemia L1210) it was 5.93. In addition, the “Active drug (5-azacytidine) recovered by hydrolysis” value in data set [1] was “approximately 80%”.

The term half-life denotes the time needed for the level to fall by half in the phase considered. Take `O=c1[nH]c(=O)n([C@H]2C[C@H](O)[C@@H](CO)O2)cc1C(F)(F)F` [Trifluridine, 5-trifluorothymidine]: the half-life in data set [2] was 12 min.
